# In article PMC6508953 (Cell chemical biology, 2017):
# Assays:
# [1] = system: Bax; assay: Bax:membrane FRET; type: biochemical, human; conditions: 10 μM preincubated with 20 nM Alexa568-Bax, 20 nM BIM, DiD liposomes
# [2] = molecular target: T1, Bax (Homo sapiens, UniProt Q07812); assay: DSS chemical crosslinking of Bax oligomers in liposomes, immunoblot; type: biochemical; conditions: for large oligomers of Bax (DSS crosslinking): high concentrations, compared with positive control Bcl-XL
# [3] = molecular target: T1, Bax; conditions: not told
# [4] = system: BMK cells
# [5] = molecular target: T1, Bax; assay: tBid/Bax-mediated liposome permeabilization; conditions: for IC50: read-out: IC50, concentration of compound required to inhibit 50% of the maximal dye release, liposomes, tBid and Bax, ANTS/DPX release
# [6] = system: HCT-116 cells; assay: Immunofluorescence for activated Bax; type: cell-based, human; conditions: 10 μM for 3 hr before ActD for 24 hr, HCT-116 WT
# [7] = system: primary embryonic mouse brain cortical neurons; assay: Glutamate excitotoxicity, lactate dehydrogenase release; type: cell-based
# [8] = molecular target: T1, Bax; assay: Bax binding to mitochondria by differential centrifugation; type: biochemical; conditions: preincubation of Bax or mitochondria with compound
# [9] = system: Bax; assay: Bax:Bax FRET oligomerization assay; type: biochemical, human; conditions: 10 μM, liposomes and tBid
# [10] = system: Bax; type: biochemical; conditions: 40 μM
# [11] = system: HCT-116 cells; conditions: 5 or 10 μM pretreatment; WT, Bax-/- and Bak-/- HCT-116 cells; actinomycin D
# T1 sequence (Q07812 whole entry): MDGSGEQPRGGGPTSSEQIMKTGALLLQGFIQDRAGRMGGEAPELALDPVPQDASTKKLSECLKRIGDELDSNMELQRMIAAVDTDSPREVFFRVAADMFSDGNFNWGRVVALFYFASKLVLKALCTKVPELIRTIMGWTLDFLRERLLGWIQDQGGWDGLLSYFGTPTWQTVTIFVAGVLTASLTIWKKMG
Bax binding to membranes by FRET [1],SMILES,large oligomers of Bax (DSS crosslinking) [2],inhibition of heat-activated Bax-mediated liposome permeabilization [3],protection against ActD treatment ([4]; sub-toxic doses),IC50 [5] [nM],Bax-6A7 positivity (exposure of N-terminal Bax epitope) after ActD [6],cytochrome c release from mitochondria in cells after ActD [6],"neuronal damage after glutamate excitotoxicity (LDH release) ([7]; 5 μM added directly after 30 min of 25 or 100 μM glutamate, read after 24 hr)","neuronal damage by compound alone ([7]; 5 μM, 24 hr, no glutamate)",Bax binding to mitochondria [8],FRET between DAC-Bax-134C and NBD-Bax-126C (Bax oligomerization) [9],Bax dimerization (DSS crosslinking) ([2]; highest concentration tested),disulfide crosslinks of double-cysteine Bax L59C/L76C and L59C/M79C [10],disulfide crosslinking of Bax-L63C with Bax-A112C ([10]; IVT and TNT systems),survival and growth after ActD treatment and replating [11],"survival and growth after STS treatment and replating ([4]; 5 μM compound, BMK cells, staurosporine)","survival and growth after ActD treatment and replating ([4]; 5 or 10 μM pretreatment, WT, Bax-/- and Bak-/- BMK cells, 75 nM ActD)","concentration-dependent inhibition of liposome permeabilization by tBid and Bax ([5]; individual assays, normalized to reactions without compound)"
did not inhibit Bax binding to membranes,NCCCN(Cc1ccc(Br)cc1)C(=O)[C@H](Cc1ccccc1)NC(=O)c1ccccc1 [DAN004],inhibited large oligomers of Bax to a similar extent as the positive control Bcl-XL,inhibited heat-activated Bax-mediated liposome permeabilization equivalently,did not confer protection against ActD treatment,~700,–,–,–,–,–,–,–,–,–,–,–,–,–
–,COCCOCOc1ccc2c(c1)O[C@H](CN)[C@H]2N(Cc1ccc(Br)cc1)C(=O)[C@H](Cc1ccccc1)NC(=O)c1ccccc1 [MSN-125],inhibited large oligomers of Bax to a similar extent as the positive control Bcl-XL,–,–,~4000,prevented,prevented,substantially reduced neuronal damage,did not result in neuronal damage,did not inhibit Bax binding to mitochondria,reduced FRET,inhibited Bax dimerization to a limited extent,not inhibited by MSN-125,not inhibited by MSN-125,conferred survival,conferred long-term survival and growth,conferred survival,inhibited dye release from liposomes in a concentration-dependent fashion
